What was measured:
CASQ2-D307H KI mice = experiment: In vivo telemetric ECG recording in CASQ2-D307H KI mice; design: species or system mouse; settings: 20 mg/kg IP; for number of mice, most severe ECG form: NSVT / number of mice, most severe ECG form: Normal (sinusal rhythm) / number of mice, most severe ECG form: SVT / number of mice, most severe ECG form: VPC: n=5 Clotrimazole, n=12 TRAM-34
Text: Telemetric ambulatory long-term ECG recordings, analogous to Holter monitoring in humans, were obtained with implantable transmitters. […] An implantable 3.5 grams wireless radiofrequency transmitter (DSI MM USA, device weight 3.8 grams) was aseptically inserted into a subcutaneous tissue pocket in the back as described in Katz, G., et al. Heart Rhythm 7, 1676-1682 (2010) and Kurtzwald-Josefson, E., et al. Heart Rhythm 11, 1471-1479 (2014)]. Animals were allowed to recover after surgery for at least 24 hours before any experiments. Baseline electrocardiograms (ECG) were obtained 15 minutes after IP injection of the appropriate vehicle (peanut oil or peanut oil supplemented with ethanol 1%). […] Telemetered ECG tracings were obtained in conscious mice at rest for one minute and during peak exercise (i.e. the first minute of recovery). In the treadmill exercise, mice were forced to exercise on a rodent treadmill; gradually increasing the speed up to a maximum of 15 m/minute. Ventricular tachycardia (VT) was defined as four or more consecutive ventricular beats. If this phenotype was consecutively observed for more than 15 seconds, it was defined as “sustained” ventricular tachycardia (SVT). Shorter VTs were characterized as “non-sustained” (NSVT). All other ventricular arrhythmias, such as premature beats, ventricular bigeminy, couplets and triplets were all defined as ventricular premature contractions (VPCs).
A heart telemetry device was implanted in WT, CASQ2-D307H KI and CASQ2 KO mice for continuous ECG recording at rest and during treadmill exercise. For each session, continuous ECG recording was performed with the same animals receiving first intraperitoneal (IP) injection of vehicle (peanut oil) and then the SK4 channel blocker.
The types of arrhythmic features were classified following their seriousness: sinusal rhythm (normal), ventricular premature contractions (VPC), non-sustained ventricular tachycardia (NSVT) and sustained ventricular tachycardia (SVT). For each mouse was considered the most severe form of arrhythmia recorded under ECG.

[1] = tested on: intact SAN tissue preparations from WT mice; experiment: Spontaneous calcium transients ex vivo in intact SAN tissue from WT mice (Fluo-4 AM); type: cell-based, mouse; settings: 2 μM TRAM-34 in presence of 100 nM isoproterenol
Description: SAN tissue preparations were dissected ex vivo from WT and CASQ2-D307H KI mice as described in Torrente, A. G., et al. Proc Natl Acad Sci USA 112, 9769-9774 (2015). The dissected whole SAN tissue was pinned on a hand-made chamber and was incubated in a Tyrode solution containing 10 μM Fluo-4 AM (Thermo Fisher Scientific) and pluronic acid for 1 hour at 37° C. in the dark. The SAN tissue was washed in Tyrode at 37° C. in the dark for 10 minutes before experiments. Fluorescence of calcium transients was recorded using a photomultiplier (PTi D-104) at 35° C. and the analog signals were digitized using Digidata 1440 (Molecular Devices) and analyzed with pCLAMP 10.5 software.
To investigate the spontaneous calcium transients of the SAN, intact SAN tissue preparations dissected ex vivo from WT and CASQ2-D307H KI mice were exposed to Fluo-4 AM as previously described [Torrente, A. G., et al. Proc Natl Acad Sci USA 112, 9769-9774 (2015)].
FIG. 6A (Left) presents representative traces of spontaneous calcium transients recorded ex vivo in intact SAN tissue preparations from WT mice. […] Right: data summary of calcium transient rate (one-way-ANOVA***P=0.0003; n=12).

SK4 K+ currents = biological target: T1, SK4 K+ currents (Mus musculus, UniProt O89109); experiment: Voltage-ramp recording of TRAM-34-sensitive current in SAN cells from WT and CASQ2-D307H KI mice; type: cell-based; settings: 5 μM TRAM-34 added to solution 1
T1 construct: representative traces of SAN cells isolated from WT and CASQ2-D307H KI mice; endogenous in cells; host or cells: primary sinoatrial node (SAN) cells dissociated from WT and CASQ2-D307H KI mouse hearts
Text: Individual SAN cells were isolated from WT and CASQ2-D307H homozygous KI mice and recorded as described above, except that cells were held at −40 mV to improve their stability.
FIGS. 5A-B presents representative traces of SAN cells isolated from WT and CASQ2-D307H KI mice. […] The orange traces indicate that cells were exposed to blocker solution 1. […] The inward hump and substantial inward and outward currents disappeared upon exposure of cells to solution 1 (orange traces).

Clc1ccccc1C(c1ccccc1)(c1ccccc1)n1cccn1 [TRAM-34, 1-[(2-chlorophenyl)diphenylmethyl]-1H-pyrazole]
PR prolongation (CASQ2-D307H KI mice; KI mice at rest, n=12): 23% | heart rate decrease (CASQ2-D307H KI mice; KI mice at rest, n=12): 24±4% | sinus rate and PR interval (CASQ2-D307H KI mice; KI mice during treadmill exercise): significant sinus bradycardia and PR interval prolongation | mice with ECG arrhythmic features totally suppressed (CASQ2-D307H KI mice; KI mice, resting conditions): 9 out of 12 | number of mice, most severe ECG form: NSVT (CASQ2-D307H KI mice; KI at rest): 0 | number of mice, most severe ECG form: Normal (sinusal rhythm) (CASQ2-D307H KI mice; KI at rest): 9 | number of mice, most severe ECG form: SVT (CASQ2-D307H KI mice; KI at rest): 0 | number of mice, most severe ECG form: VPC (CASQ2-D307H KI mice; KI at rest): 3 | number of mice, most severe ECG form: NSVT (CASQ2-D307H KI mice; KI during Exercise): 4 | number of mice, most severe ECG form: Normal (sinusal rhythm) (CASQ2-D307H KI mice; KI during Exercise): 4 | number of mice, most severe ECG form: SVT (CASQ2-D307H KI mice; KI during Exercise): 0 | number of mice, most severe ECG form: VPC (CASQ2-D307H KI mice; KI during Exercise): 4 | pattern of the Ca2+ waves [1]: did not alter the pattern of the Ca^2+ waves | TRAM-34-sensitive current density (SK4 K+ currents): TRAM-34-sensitive currents with similar densities were isolated

— US11166940B2, “Treatment of cardiac disorders by blocking SK4 potassium channel” (Ramot at Tel-Aviv University Ltd., priority 2016, dated 2021)
